From PubChem BioAssay (NCI) come the findings set out here.

Holding throughout (assay): growth of human tumour cells (NCI), 48 h
For assay [1], the system named is NCI-H460 lung.
Assay [2] relates to LOX IMVI melanoma.
Assay [3] relates to NCI-H522 lung.
Assay [4] concerns BT-549 breast.
Assay [5] relates to MOLT-4 leukemia.
The test system of assay [6] is M14 melanoma.
The test system of assay [7] is OVCAR-4 ovarian.
The test system of assay [8] is HCT-15 colon.
Assay [9] relates to HL-60(TB) leukemia.
The test system of assay [10] is SK-MEL-5 melanoma.

Structures are written as SMILES. Where “and” joins values, the source holds several entries; their conditions need not be identical. Equal values may be shown once.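 In this assay, cells in 96-well plates receive the compound at five concentrations for 48 hours. Endpoints are linearly interpolated between the surrounding concentrations. Abbreviation: GI50, concentration required for 50% inhibition of growth. TGI marks complete inhibition of growth.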

For `COc1ccc(-c2cn(-c3cccc(C(=O)/C=C/c4ccc(O)c(OC)c4)c3)c(=O)[nH]2)cc1`, the GI50 in [1] was 3.21 µM; in [2], 2.21 µM; in assay [3] it was 2600 nM; in [4], 3320 nM; in assay [5], 2870 nM; in [6] it was 4.48 µM. For the same compound, the GI50 was 4.03 µM in [7], 2640 nM in assay [8], 2500 nM in assay [9] and 2690 nM in assay [10]. Besides, the TGI in [1] was 10.4 µM; in [2], 6.02 µM; in [3], 10.7 µM; in [4] it was 22.8 µM; in [5], > 23.8 µM; in assay [6] it was 40.5 µM. The TGI in assay [7] was > 24.4 µM; in assay [8] it was 32.8 µM; in assay [9], 16 µM; in assay [10] it was 11 µM.

`Cc1ccc(C(=O)N2CCN(C(=O)c3ccc(C)cc3)c3ccccc32)cc1`: the TGI in assay [1] is > 100 µM; in assay [2], > 100 µM; in [3], 5.96 µM; in assay [4], > 100 µM; in assay [5], > 46.4 µM; in [6], > 100 µM. Moreover, the TGI is > 100 µM in assay [7], > 100 µM in assay [8], 4.21 µM in [9] and 43.5 µM in assay [10].

For `c1ccc(Nn2c(CCCCCCCCc3nnc(COc4ccccc4)n3Nc3ccccc3)nnc2COc2ccccc2)cc1`, the GI50 in [1] was 6.34 µM and 12.9 µM; in assay [2] it was 5.35 µM and 4.04 µM; in assay [4] it was 33000 nM; in [5], 14500 nM; in assay [6], 6.24 µM and 4.23 µM; in assay [7], 25.8 µM and 88.1 µM. The GI50 in assay [8] was 9880 nM and 5620 nM; in [9] it was 2550 nM and 9660 nM; in assay [10], 6410 nM and 50000 nM. Also, the TGI in [1] was > 300 µM; in [2], > 300 µM; in assay [3], > 91.8 µM; in [4] it was > 300 µM; in assay [5], > 300 µM; in assay [6] it was > 60.1 µM and 50.2 µM. The TGI in assay [7], in assay [8], in assay [9] and in [10] was > 300 µM throughout.

As for `COc1cc(-c2csc(NC(=O)Nc3cc(C(F)(F)F)cc(C(F)(F)F)c3)n2)cc(OC)c1OC`, the GI50 in assay [1] is 2.74 µM; in [2] it was 3.04 µM; in assay [3], 1600 nM; in assay [4], 2380 nM; in assay [5], 2170 nM; in assay [6], 2.35 µM. Also, the GI50 in [7] was 2.68 µM; in assay [8], 2510 nM; in assay [9], 2430 nM; in assay [10], 1570 nM. Also, the TGI came to 10.8 µM in assay [1]; 12.3 µM in assay [2]; 5 µM in [3]; 7.84 µM in [4]; 8.99 µM in assay [5]; 6.24 µM in [6]. Moreover, the TGI in assay [7] was 17 µM; in assay [8] it was 10.9 µM; in assay [9] it was 6.89 µM; in [10], 3.24 µM.

As to `O=C(NCCCCCCNC(=O)n1cc(F)c(=O)[nH]c1=O)NCCCOCCOCCOCCOCCOCCOCCOCCOCCOCCOCCOCCOCCOCCOCCOCCOCCOCCOCCOCCOCCOCCCNC(=O)C(O)C(O)C(OC1OC(CO)C(O)C(O)C1O)C(O)CO` (centres undefined), the TGI in [1], in [2], in assay [3], in [4], in assay [5] and in assay [6] was > 100 µM each time. Further, the TGI in [7], in assay [8], in assay [9] and in assay [10] was > 100 µM throughout.

As to `N#Cc1ccc(C2C3=C(CCCC3=O)OC3=C2C(=O)c2ccccc2C3=O)cc1` (centres undefined), the GI50 is 3.64 µM in assay [1]; 0.343 µM in assay [2]; 1990 nM in assay [3]; 1560 nM in assay [4]; 1630 nM in [5]; 1.71 µM in [6]. Besides, the GI50 in assay [7] is 0.265 µM; in assay [8], 1600 nM; in [9], 259 nM; in [10] it was 1720 nM. Moreover, the TGI in [1] was determined as 13.3 µM; in [2] it was 1.69 µM; in [3], 4.31 µM; in assay [4], 2.92 µM; in assay [5], 5.53 µM; in assay [6], 3.37 µM. In addition, the TGI is 1.07 µM in [7], 3.71 µM in assay [8], 1.27 µM in assay [9] and 3.25 µM in assay [10].

For the compound `O=C(O)c1ccc2c3c(ncnc13)-c1ccccc1C2=O`, the GI50 in assay [1] was 2.43 µM; in assay [2], 1.74 µM; in [3], 13800 nM; in [4], 2510 nM; in assay [5] it was > 100000 nM; in assay [6], 1.35 µM. Besides, the GI50 in assay [7] was > 100 µM; in assay [8], 2470 nM; in assay [9] it was 27300 nM; in assay [10], 1340 nM. Further, the TGI in assay [1] was 6.02 µM; in assay [2], 18.5 µM; in assay [3], > 100 µM; in [4], > 29.9 µM; in assay [5], > 100 µM; in assay [6], 3.05 µM. Further, the TGI in [7] was > 100 µM; in assay [8], > 48 µM; in assay [9] it was > 100 µM; in assay [10], 2.65 µM.

With `c1cncc(-c2nc3ccccc3s2)c1`, the GI50 in [1] was > 100 µM; in assay [2], > 100 µM; in [3], > 100000 nM; in assay [4], 74000 nM; in assay [5] it was 73700 nM; in assay [6], > 100 µM. For the same compound, the GI50 in assay [7] is > 100 µM; in assay [8], > 100000 nM; in [9], > 100000 nM; in assay [10], > 100000 nM. Further, the TGI in assay [1], in assay [2], in assay [3], in assay [4], in assay [5] and in [6] was > 100 µM each time. Besides, the TGI in assay [7], in [8], in [9] and in assay [10] was > 100 µM in each case.
